Like-named read-outs stand apart in the source and are kept apart here.

Assay [1] concerns the target T1, bovine ARβ3 receptor (Bos taurus, UniProt P46626).
T1 construct: to liberate the 1598-base pair fragment containing the coding region of the bovine β3 gene; expressed in transfected cells
Kind of assay: competitive binding of ligands against [^125 I]cyanopindolol on intact CHO cells, bovine receptor (clone 62-26). As to the method: Reaction is stopped by dilution with ice-cold PBS, the cells are filtered off and the radioactivity is measured in a gamma counter. The results were analysed using Graph-Pad.COPYRGT. software.

In assay [2] the target is T1, bovine ARβ3 receptor. Description: adenylate cyclase activation (cAMP accumulation) in CHO cells, bovine receptor (clone 62-26). The following applies: for Emax: CHO; for Emax / Emax at 100 µM: 0.5 h, read-out: Accumul. cAMP IA (intrinsic activity). Also noted: Emax: dose or concentration left out as unconfirmed. It is filed as cell-based. As for the experimental part: Briefly, preconfluent cells in six-well plates (0.6×10^6 cells/well) are placed in contact or otherwise with increasing doses of ligands for 30 minutes at 37° C. Reaction is stopped by washing in PBS at 4° C. and adding 500 μl of 1N NaOH. After centrifugation and neutralization with 1N acetic acid, the cell lysates are recovered and the total amount of cAMP accumulated is determined using a commercial assay kit.
For orientation: Cyclic AMP is a second messenger, typically raised through Gs and lowered through Gi signalling.

The target of assay [3] is mouse ARβ3 receptor. The following applies: Mouse RAβ3-CHO; read-out: Binding Ki; cited from earlier work.
In assay [4] the test system is mouse ARβ3 receptor. The conditions noted are these: cited from earlier work; for Accumul. cAMP IA (intrinsic activity) / EC50: Mouse RAβ3-CHO; for Accumul. cAMP IA (intrinsic activity): ratio of effect of ligand at 10^-4 M to effect of isoproterenol at 10^-4 M, 100 µM; for EC50: read-out: Accumul. cAMP Kact (adenylate cyclase activation constant); for functional character (agonist/antagonist): mouse ARβ3.

The target of assay [5] is human ARβ3 receptor. The conditions noted are these: Human RAβ3-CHO; read-out: Binding Ki; cited from earlier work.
The test system of assay [6] is human ARβ3 receptor. The following applies: cited from earlier work; for Accumul. cAMP IA (intrinsic activity) / EC50: Human RAβ3-CHO; for Accumul. cAMP IA (intrinsic activity): ratio of effect of ligand at 10^-4 M to effect of isoproterenol at 10^-4 M, 100 µM; for EC50: read-out: Accumul. cAMP Kact (adenylate cyclase activation constant); for functional character (agonist/antagonist): human ARβ3.

A further assay deals with β1 -, β2 - and β3 -AR. The following applies: β1, β2, β3 subtypes; cited from earlier work.
The next assay deals with bovine ARβ3. Kind of assay: binding of [^125 I]cyanopindolol to transfected cells stably expressing ARβ3. The source says:
Stable colonies are screened for their capacity to bind specifically to [^125 I]cyanopindolol and also for their capacity to stimulate adenylate cyclase in the presence of isoproterenol, in accordance with protocol described in TATE et al., Eur. J. Biochem., 191, 196, 357-361.

Where [7] appears, read: BovineRAβ3-CHO, 0.5 nM [^125 I]cyanopindolol, 30 minutes at 37° C., read-out: Binding Ki.
The mark [8] stands for this setting: BovineRAβ3-CHO, ratio of effect of ligand at 10^-4 M to effect of isoproterenol at 10^-4 M.
Where [9] appears, read: BovineRAβ3-CHO, 30 minutes at 37° C., read-out: Accumul. cAMP Kact (adenylate cyclase activation constant).

T1 sequence (P46626 whole entry, the tested form may be a part): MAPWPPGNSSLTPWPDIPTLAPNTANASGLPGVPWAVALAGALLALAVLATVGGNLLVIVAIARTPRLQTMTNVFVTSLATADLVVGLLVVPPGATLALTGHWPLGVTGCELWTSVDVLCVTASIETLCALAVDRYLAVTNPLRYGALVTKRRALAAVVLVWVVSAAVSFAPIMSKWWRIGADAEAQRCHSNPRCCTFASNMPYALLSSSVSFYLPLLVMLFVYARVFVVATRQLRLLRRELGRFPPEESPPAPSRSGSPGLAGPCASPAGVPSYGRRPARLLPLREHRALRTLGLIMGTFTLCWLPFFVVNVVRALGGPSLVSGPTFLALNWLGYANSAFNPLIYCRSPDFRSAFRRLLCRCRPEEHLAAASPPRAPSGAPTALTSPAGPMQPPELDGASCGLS

A word on the Ki: it is the equilibrium dissociation constant of an inhibitor or competing ligand from its target. Regarding `C[C@H](Cc1ccc(OCC(=O)O)cc1)NC[C@H](O)c1cccc(Cl)c1` (relative stereo) [BRL 37344], the Ki is 2.13 ± 1.4 nM at bovine ARβ3 receptor [1], 290 ± 136 nM at mouse ARβ3 receptor [3] and 287 ± 92 nM on human ARβ3 receptor [5]. For the same molecule, the values for the EC50 on bovine ARβ3 receptor [2], at mouse ARβ3 receptor [4] and on human ARβ3 receptor [6] were 0.3 nM, 0.4 ± 0.1 nM and 15 ± 3 nM, respectively. Also, the Emax at bovine ARβ3 receptor [2] worked out at 84 ± 10%. Besides, the “Accumul. cAMP IA (intrinsic activity)” value was 1.07 ± 0.08 with mouse ARβ3 receptor [4] and 1.11 ± 0.12 in the assay on human ARβ3 receptor [6]. In the assay on β1 -, β2 - and β3 -AR, the described agonist/antagonist class entry was “β1 -, β2 - and β3 -AR-receptor agonists”.
Consider `CC(C)(C)NCC(O)COc1cccc2[nH]c(C#N)c([125I])c12` (stereo not drawn) [[^125 I]cyanopindolol], for which the “binding affinity compared to ARβ3 in man or in mouse” value in the assay on bovine ARβ3 was “affinity equivalent to that of the corresponding ARβ3 in man or in mouse”.
In the case of `NC[C@H](O)c1ccc(O)c(O)c1` [(-) norepinephrine, (-)-norepinephrine], the values for the Ki at bovine ARβ3 receptor [1], at mouse ARβ3 receptor [3] and at human ARβ3 receptor [5] were 423 ± 255 nM, 1840 nM and 475 ± 75 nM, respectively. The EC50 is 54 ± 4.3 nM on bovine ARβ3 receptor [2], 13 ± 4 nM at mouse ARβ3 receptor [4] and 6.32 ± 0.7 nM at human ARβ3 receptor [6]. At bovine ARβ3 receptor [2], the Emax came out at 100 ± 50%. Further, the “Accumul. cAMP IA (intrinsic activity)” value with mouse ARβ3 receptor [4] was 1.06 ± 0.06; in the assay on human ARβ3 receptor [6], 1.00. Further, the described agonist/antagonist class result with β1 -, β2 - and β3 -AR is “β1 -, β2 - and β3 -AR-receptor agonists”.
Take `CC(C)NCC(O)c1ccc(O)c(O)c1` (single isomer, unassigned; (-)) [(-) isproterenol, (-)-iso-proterenol]: the Ki was 84 ± 81 nM at bovine ARβ3 receptor [1] and 620 nM at human ARβ3 receptor [5]. At bovine ARβ3 receptor [2], the EC50 worked out at 14 ± 2 nM. In addition, the Emax on bovine ARβ3 receptor [2] was 90 ± 10%. In addition, in the assay on β1 -, β2 - and β3 -AR, the described agonist/antagonist class entry is “β1 -, β2 - and β3 -AR-receptor agonists”.
For the molecule `CC(C)NC[C@H](O)COc1cccc2ccccc12` [(- ) propranolol, (-)-propranolol], the “functional character (agonist/antagonist)” value with mouse ARβ3 receptor [4] is given as “antagonist”. Besides, in the assay on human ARβ3 receptor [6], the “Accumul. cAMP IA (intrinsic activity)” value is listed as 0.51 ± 0.12 and the “functional character (agonist/antagonist)” value was “partial agonist”.
Regarding `CC(C)(C)NCC(O)COc1cccc2[nH]c(=O)[nH]c12` (stereo not drawn) [CGP 12177A], the figures for the inhibitory constant (Ki) at bovine ARβ3 receptor [1] (setting [7]), at mouse ARβ3 receptor [3] and at human ARβ3 receptor [5] were 218 ± 161 nM, 152 ± 19 nM and 88 ± 22 nM, respectively. For the same molecule, on bovine ARβ3 receptor [2] (setting [8]), the Emax at 100 µM came to 93 ± 20%. The EC50 at bovine ARβ3 receptor [2] (setting [9]) was 1.41 nM; at human ARβ3 receptor [6], 139 ± 44 nM. Also, in the assay on human ARβ3 receptor [6], the “Accumul. cAMP IA (intrinsic activity)” value was 0.68 ± 0.02. In addition, in the assay on β1 -, β2 - and β3 -AR, the described agonist/antagonist class result is given as “specific for the ARβ3 receptor (β1 -, β2 -AR antagonists)”.
Consider `O=C(O)COc1ccc(OCCNCC(O)COc2ccccc2)cc1` (stereo not drawn) [ICI 201651], for which the Ki on bovine ARβ3 receptor [1] (setting [7]) is 27.7 ± 24 nM; at mouse ARβ3 receptor [3], 239 ± 104 nM; at human ARβ3 receptor [5] it was 85 ± 12 nM. Further, the EC50 at bovine ARβ3 receptor [2] (setting [9]) is 1.1 nM; on mouse ARβ3 receptor [4], 15 ± 1 nM; on human ARβ3 receptor [6], 20 ± 9 nM. In addition, the “Accumul. cAMP IA (intrinsic activity)” value is 0.85 ± 0.1 on bovine ARβ3 receptor [2] (BovineRAβ3-CHO, ratio of effect of ligand at 10^-4 M to effect of isoproterenol at 10^-4 M, 30 min, 100 µM); 1.02 ± 0.02 with mouse ARβ3 receptor [4]; 1.14 ± 0.14 in the assay with human ARβ3 receptor [6]. Besides, the described agonist/antagonist class result in the assay with β1 -, β2 - and β3 -AR is “specific for the ARβ3 receptor (β1 -, β2 -AR antagonists)”.
On to `CC(C)(Cc1c[nH]c2ccccc12)NCC(O)COc1ccccc1C#N` (stereo not drawn) [Bucindolol, bucindolol], for which the Ki was 73 ± 42 nM at bovine ARβ3 receptor [1] (setting [7]), 21 ± 5 nM at mouse ARβ3 receptor [3] and 23 ± 10 nM at human ARβ3 receptor [5]. Moreover, on bovine ARβ3 receptor [2] (setting [8]), the Emax at 100 µM was determined as 99 ± 10%. The results for the EC50 at bovine ARβ3 receptor [2] (setting [9]), at mouse ARβ3 receptor [4] and on human ARβ3 receptor [6] were 12.8 nM, 40 ± 14 nM and 7 ± 1.2 nM, respectively. Further, the “Accumul. cAMP IA (intrinsic activity)” value with mouse ARβ3 receptor [4] is 1.11 ± 0.06; in the assay on human ARβ3 receptor [6], 1.01 ± 0.10. For the same molecule, the described agonist/antagonist class result in the assay with β1 -, β2 - and β3 -AR was “specific for the ARβ3 receptor (β1 -, β2 -AR antagonists)”.
Consider `Cc1ccc(Cl)c(OCC(O)CNC(C)(C)C)c1` (single isomer, unassigned; (-)) [(-) bupranolol, bupranolol], for which the Ki is 85 ± 40 nM at bovine ARβ3 receptor [1] (setting [7]), 42 ± 19 nM at mouse ARβ3 receptor [3] and 50 ± 14 nM on human ARβ3 receptor [5]. The Emax at 100 µM at bovine ARβ3 receptor [2] (setting [8]) is 34 ± 1%. In addition, the EC50 on bovine ARβ3 receptor [2] (setting [9]) stood at 507 nM. The “functional character (agonist/antagonist)” value at bovine ARβ3 receptor [2] (bovine ARβ3) is listed as “partial agonist”; in the assay on mouse ARβ3 receptor [4] it was “antagonist”; in the assay on mouse ARβ3 receptor [4] (listed as bupranolol) it was “potent antagonist”; in the assay with human ARβ3 receptor [6], “antagonist”; with human ARβ3 receptor [6] (listed as bupranolol), “potent antagonist”. In the assay on β1 -, β2 - and β3 -AR, the described agonist/antagonist class entry is on record as “antagonist of the three subtypes of receptor”.
As for `CNC[C@H](O)c1ccc(O)c(O)c1` [(- ) epinephrine, (-)-epinephrine], the figures for the Ki on bovine ARβ3 receptor [1] (setting [7]), at mouse ARβ3 receptor [3] and at human ARβ3 receptor [5] were 11100 nM, 4600 nM and 20600 nM, respectively. The EC50 at bovine ARβ3 receptor [2] (setting [9]) was 50.7 nM; at mouse ARβ3 receptor [4] it was 23 ± 0.3 nM; at human ARβ3 receptor [6], 49 ± 5 nM. Further, the Emax at bovine ARβ3 receptor [2] turned out to be 80 ± 30%. Further, the figures for the “Accumul. cAMP IA (intrinsic activity)” value in the assay with mouse ARβ3 receptor [4] and with human ARβ3 receptor [6] were 0.91 ± 0.03 and 1.00 ± 0.04, respectively. The described agonist/antagonist class result in the assay on β1 -, β2 - and β3 -AR was “β1 -, β2 - and β3 -AR-receptor agonists”.

Source of the values: patent publication US5656440A, “Nucleotide sequences coding for the bovine β3 -adrenergic receptor (ARβ3) and their applications” (Virbac, priority 1993, dated 1997).
